In US8227433B2, “Use of inhibitors and antisense oligonucleotides of BTK for treating proliferative mastocytosis” (Centre National de la Recherche Scientifique (CNRS), priority 2003, dated 2012):

Legend:
HMC1 cells [1] = experiment: Determination of HMC1 cells sensibility to G418 (lethal geneticine dose); format: cell-based, human; details: 6 wells plate; 0 to 1.4 mg/ml tested; colonies visualized one week after seeding
Description: To determine, the lethal geneticine dose for HMC1, cells were seeded in 6 wells plate (10^5 cells/wells) in presence of increasing concentration of geneticine (0; 0.6; 0.8; 1; 1.2; 1.4 mg/ml). One week after seeding, colonies are visualized by crystal purple coloration. It appears that the effective dose was 1.2 mg/ml geneticine in the culture Media. Indeed, at lower doses, we observed development of HMC1 colonies. • -Infection of HMC1 Cells

BTK = BTK expression in HMC-1 clones that integrated the retrovirus vector coding for the BTK antisense RNA; format: cell-based, human; details: HMC-1 target cells which integrated the vector; 4 clones; FIG. 3
Excerpt: 2.1 We used antisense RNA to inhibit the expression of BTK in HMC-1, which is resistant to apoptosis. In this regard, we have constructed a retrovirus vector coding for an antisense RNA containing 32 nucleotides directed to the sequence comprised in the AUG region of the BTK gene (SEQ ID No 1).
Target cells, which integrated this vector, show a significant decrease in the expression of BTK. Regarding 4 clones, we have noted a decrease of about 50% of the expression of the BTK (see FIG. 3).

HMC-1 cells = experiment: Tumor size in nude mice injected with HMC-1 cells expressing the BTK antisense; format: in vivo; details: nude mice injected with 2 millions HMC-1 cells, tumor size assessed few weeks after injection, FIG. 4
Excerpt: We used nude mice, which have been injected with 2 millions HMC-1 cells.

HMC1 cells [2] = experiment: G418-resistant colony formation of HMC1 cells infected with LNCX or LNCX-AS BTK virus; format: cell-based
Description: HMC1 cells seeded the day before in 6 wells plates (10^5 cells/ well) are infected with increasing doses of LNCX or LNCX-AS BTK virus. 24 hours after infection, cells are washed in PBS and cultured in medium containing geneticine (1.2 mg/ml). After one week, we observed the formation of colonies resistant to geneticine and whose number depends on the quantity of virus used for infection. When comparing the number of colonies of HMC1 resisting to G418 obtained from cells infected with the LNCX or LNCX-AS BTK virus, we observed independently of the virus concentration used, a lower number of colonies of cells infected with LNCX-AS BTK relative to the number of colonies of cells infected with LNCX. For equivalent quantity of virus, we obtained between 5 to 10 fold less colonies of HMC resisting to G418 by infecting with the LNCX-AS BTK virus compared to the infection with the LNCX “empty”.
The 10 to 20% surviving clones are those for which the antisense expression level is weak thereby maintaining a BTK expression level compatible with cellular survival.

Compound | lethal (effective) geneticine dose for HMC1 (HMC1 cells [1]) | decrease of the expression of the BTK (BTK) | anti-tumoral effect (size of the tumors) (HMC-1 cells) | anti-tumoral effect (size of the tumors) (HMC-1 cells; listed as antisens oligonucleotide directed against BTK) | cellular mortality (HMC1 cells [2]; HMC1 cells, decrease of BTK expression by the antisense RNA) | surviving clones (HMC1 cells [2]; HMC1 clones with weak antisense expression level)
CN[C@@H]1[C@@H](O)[C@@H](O[C@@H]2[C@@H](O)[C@H](O[C@H]3O[C@H]([C@@H](C)O)[C@@H](O)[C@H](O)[C@H]3N)[C@@H](N)C[C@H]2N)OC[C@]1(C)O [geneticine] | 1.2 mg/mL |  |  |  |  | 
5′ AGAATCACTGCGGCCATAGCTTCTTCTTTCTG 3′ (chemistry not given here) [BTK antisense] |  | about 50% | significant anti-tumoral effects | significantly decrease the size of tumors | 80 to 90% | 10 to 20%
